# System: 126254-015-R-J1-PDC complex spheroid growth, % test/control
# Test: Anticancer human tumor 126254-015-R-J1-PDC patient-derived soft tissue sarcoma cell line growth inhibition [Asc]
# Settings: for IC50: curve of first compound; for viability, T/C: stronger effect = lower value
# In short: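 Tumor cells were grown as complex spheroids with human endothelial cells (HUVEC) and human mesenchymal stem cells as stroma. Agents were tested alone and in combination, in half-log steps down from the clinical Cmax, or from 10 microM where Cmax was unknown.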
# 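Note: spheroids exposed to compound for seven days.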
# 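Throughout, for viability, T/C: 100% = DMSO vehicle control wells.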
structure (smiles),measurement,setting,value
Cc1nc(N2CCC3(CC2)COC(C)C3N)c(CO)nc1Sc1ccnc(N)c1Cl (stereo not given) + CCN1C(C(=O)NC23CCC(C(=O)O)(CC2)CC3)C(c2cccc(Cl)c2F)C2(C(=O)Nc3cc(Cl)ccc32)C12CCCCC2,IC50,second compound 0.03 µM,1430 nM
same,IC50,second compound 0.0949 µM,759 nM
same,IC50,second compound 0.3 µM,1050 nM
same,IC50,second compound 0.949 µM,785 nM
same,IC50,second compound 3 µM,891 nM
same,"viability, T/C","second compound 0.03 µM, first compound 0.00949 µM",98.5%
same,"viability, T/C","second compound 0.03 µM, first compound 0.03 µM",87.4%
same,"viability, T/C","second compound 0.03 µM, first compound 0.0949 µM",81.1%
same,"viability, T/C","second compound 0.03 µM, first compound 0.3 µM",64.8%
same,"viability, T/C","second compound 0.03 µM, first compound 0.949 µM",59.5%
same,"viability, T/C","second compound 0.03 µM, first compound 3 µM",38.8%
same,"viability, T/C","second compound 0.0949 µM, first compound 0.00949 µM",90.7%
same,"viability, T/C","second compound 0.0949 µM, first compound 0.03 µM",95.8%
same,"viability, T/C","second compound 0.0949 µM, first compound 0.0949 µM",86.3%
same,"viability, T/C","second compound 0.0949 µM, first compound 0.3 µM",63.2%
same,"viability, T/C","second compound 0.0949 µM, first compound 0.949 µM",47.8%
same,"viability, T/C","second compound 0.0949 µM, first compound 3 µM",43%
same,"viability, T/C","second compound 0.3 µM, first compound 0.00949 µM",88.7%
same,"viability, T/C","second compound 0.3 µM, first compound 0.03 µM",93.5%
same,"viability, T/C","second compound 0.3 µM, first compound 0.0949 µM",69.9%
same,"viability, T/C","second compound 0.3 µM, first compound 0.3 µM",60.7%
same,"viability, T/C","second compound 0.3 µM, first compound 0.949 µM",54.7%
same,"viability, T/C","second compound 0.3 µM, first compound 3 µM",42.5%
same,"viability, T/C","second compound 0.949 µM, first compound 0.00949 µM",91.3%
same,"viability, T/C","second compound 0.949 µM, first compound 0.03 µM",91.2%
same,"viability, T/C","second compound 0.949 µM, first compound 0.0949 µM",76.8%
same,"viability, T/C","second compound 0.949 µM, first compound 0.3 µM",59.1%
same,"viability, T/C","second compound 0.949 µM, first compound 0.949 µM",51.2%
same,"viability, T/C","second compound 0.949 µM, first compound 3 µM",38.4%
same,"viability, T/C","second compound 3 µM, first compound 0.00949 µM",98.2%
same,"viability, T/C","second compound 3 µM, first compound 0.03 µM",87.8%
same,"viability, T/C","second compound 3 µM, first compound 0.0949 µM",85%
same,"viability, T/C","second compound 3 µM, first compound 0.3 µM",63.8%
same,"viability, T/C","second compound 3 µM, first compound 0.949 µM",49.6%
same,"viability, T/C","second compound 3 µM, first compound 3 µM",39.2%
